Reference: ChEMBL document CHEMBL5244273, “Tuberculosis: An Overview of the Immunogenic Response, Disease Progression, and Medicinal Chemistry Efforts in the Last Decade toward the Development of Potential Drugs for Extensively Drug-Resistant Tuberculosis Strains” (J Med Chem, 2021)
In brackets after ≈: the same amount, converted by molar mass.

Legend:
[1] = system: Mycobacterium tuberculosis; assay: Antimycobacterial activity against Mycobacterium tuberculosis H37Rv; format: functional
[2] = system: Mycobacterium tuberculosis; assay: Antimycobacterial activity against Mycobacterium tuberculosis H37Rv assessed as inhibition of bacterial growth by resazurin dye based fluorescence analysis; format: functional

NOC(=O)c1c(NC(=O)c2c(F)c(F)c(F)c(F)c2F)sc2c1CCCCC2
MIC [1]: 15.3 µg/mL (≈ 36.4 µM)

O=S(=O)(NCCO)c1ccc(-c2nnn(CC3CCC(F)(F)CC3)n2)cc1
MIC [2]: 0.1 µM (≈ 0.0401 µg/mL)

CC(=O)N1N=C(c2ccc3oc(NC(=O)c4ccccc4Cl)nc3c2)CC1c1cccs1 (centres undefined)
MIC [1]: 25 µg/mL (≈ 53.8 µM)

COc1ccccc1C(=O)Nc1nc2cc(C3=NN(C(C)=O)C(c4cccs4)C3)ccc2o1 (centres undefined)
MIC [1]: 25 µg/mL (≈ 54.3 µM)

O=[N+]([O-])c1ccc(F)c(-c2nnc(S)o2)c1
MIC [1]: > 25 µg/mL

CCc1ccc(Cn2nnc(-c3ccc(S(=O)(=O)NCCO)cc3)n2)cc1
MIC [2]: 0.1 µM (≈ 0.0387 µg/mL)

O=S(=O)(NCCO)c1ccc(-c2nnn(Cc3ccnnc3)n2)cc1
MIC [2]: 0.1 µM (≈ 0.0361 µg/mL)

CNS(=O)(=O)c1ccc(-c2nnn(Cc3ccncc3)n2)cc1OC
MIC [2]: 0.1 µM (≈ 0.036 µg/mL)

C[C@H](c1ccc(F)cn1)n1nnc(-c2ccc(S(=O)(=O)NCCO)cc2)n1
MIC [2]: 0.1 µM (≈ 0.0392 µg/mL)

COc1cc(-c2nnn(Cc3ccc(F)cn3)n2)ccc1S(=O)(=O)NCCO
MIC [2]: 0.1 µM (≈ 0.0408 µg/mL)

CCCC(=O)Nc1nc2cc(C3=NN(C(C)=O)C(c4cccs4)C3)ccc2o1 (centres undefined)
MIC [1]: 12.5 µg/mL (≈ 31.5 µM)

CC(=O)Nc1nc2cc(C3=NN(C(C)=O)C(c4cccs4)C3)ccc2o1 (centres undefined)
MIC [1]: 25 µg/mL (≈ 67.9 µM)

Cc1ccc(-c2nnc(S)o2)cc1
MIC [1]: 9.6 µg/mL (≈ 49.9 µM)

O=S(=O)(NC(CO)CO)c1ccc(-c2nnn(Cc3ccncc3)n2)cc1
MIC [2]: 0.1 µM (≈ 0.039 µg/mL)

CCn1cc(C(=O)O)c(=O)c2cc(F)c(-n3cccc3)cc21 [IRLOXACIN]
MIC50 [1]: 8 µg/mL (≈ 26.6 µM)

CC(=O)N1/C(=C/c2cccc(-c3ccccc3)c2)C(=O)c2ccccc21
MIC90 [1]: 4.49 µM (≈ 1.52 µg/mL)
MIC99 [1]: 4.94 µM (≈ 1.68 µg/mL)

Sc1nnc(-c2ccccc2I)o1
MIC [1]: 15.2 µg/mL (≈ 50 µM)

CC(=O)N1/C(=C/c2ccc(Oc3ccc(Cl)cc3)cc2)C(=O)c2ccccc21
MIC90 [1]: 6.2 µM (≈ 2.42 µg/mL)
MIC99 [1]: 8.4 µM (≈ 3.27 µg/mL)

CC(=O)N1/C(=C/c2cccc(-c3ccc(OC(F)(F)F)cc3)c2)C(=O)c2ccccc21
MIC90 [1]: > 20 µM
MIC99 [1]: > 20 µM

CC(=O)N1/C(=C/c2ccc(-c3cnn(C)c3)cc2)C(=O)c2ccccc21
MIC90 [1]: 3.16 µM (≈ 1.09 µg/mL)
MIC99 [1]: 3.66 µM (≈ 1.26 µg/mL)

CC(=O)N1N=C(c2ccc3oc(-c4cccnc4)nc3c2)CC1c1cccs1 (centres undefined)
MIC [1]: 25 µg/mL (≈ 64.4 µM)

Fc1ccc(-c2nnc(S)o2)cc1
MIC [1]: > 25 µg/mL

Cc1c(C(N)=O)sc(NC(=O)c2c(F)c(F)c(F)c(F)c2F)c1C(=O)O
MIC [1]: 78.4 µg/mL (≈ 199 µM)

CC(=O)N1/C(=C/c2ccc(OCc3ccccc3)cc2)C(=O)c2ccccc21
MIC90 [1]: 1.89 µM (≈ 0.698 µg/mL)
MIC99 [1]: 2.58 µM (≈ 0.953 µg/mL)

COc1cccc(-c2nc3cc(C4=NN(C(C)=O)C(c5cccs5)C4)ccc3o2)c1 (centres undefined)
MIC [1]: 25 µg/mL (≈ 59.9 µM)

CC(=O)N1/C(=C/c2ccc(-c3cnc4ccccc4c3)cc2)C(=O)c2ccccc21
MIC90 [1]: 0.649 µM (≈ 0.253 µg/mL)
MIC99 [1]: 0.736 µM (≈ 0.287 µg/mL)

CC(=O)N1/C(=C/c2cccc(-c3ccsc3)c2)C(=O)c2ccccc21
MIC90 [1]: 3.19 µM (≈ 1.1 µg/mL)
MIC99 [1]: 3.34 µM (≈ 1.15 µg/mL)

Sc1nnc(-c2ccc(Br)cc2)o1
MIC [1]: > 25 µg/mL

CC(=O)N1/C(=C/c2cccc(-c3cnn(C)c3)c2)C(=O)c2ccccc21
MIC90 [1]: 4.93 µM (≈ 1.69 µg/mL)
MIC99 [1]: 5.61 µM (≈ 1.93 µg/mL)

CCOC(=O)c1sc(NC(=O)c2c(F)c(F)c(F)c(F)c2F)c(C(=O)OCC)c1C
MIC [1]: 7.1 µg/mL (≈ 15.7 µM)

CC(=O)N1N=C(c2ccc3oc(NC(=O)c4ccccc4)nc3c2)CC1c1cccs1 (centres undefined)
MIC [1]: 6.25 µg/mL (≈ 14.5 µM)

NC(=O)N1N=C(c2ccc3oc(N)nc3c2)CC1c1cccs1 (centres undefined)
MIC [1]: 6.25 µg/mL (≈ 19.1 µM)

Sc1nnc(-c2ccc(Cl)cc2)o1
MIC [1]: 5.3 µg/mL (≈ 24.9 µM)

CCc1c(C)sc(NC(=O)c2c(F)c(F)c(F)c(F)c2F)c1C(=O)OC(C)C
MIC [1]: 1 µg/mL (≈ 2.37 µM)

COC(=O)c1c(NC(=O)c2c(F)c(F)c(F)c(F)c2F)sc2c1CCC2
MIC [1]: 2.1 µg/mL (≈ 5.37 µM)

CC(=O)N1N=C(c2ccc3oc(-c4ccccn4)nc3c2)CC1c1cccs1 (centres undefined)
MIC [1]: 25 µg/mL (≈ 64.4 µM)

CC(=O)N1N=C(c2ccc3oc(-c4ccncc4)nc3c2)CC1c1cccs1 (centres undefined)
MIC [1]: 25 µg/mL (≈ 64.4 µM)

CC(=O)N1/C(=C/c2ccc(-c3ccc(C(F)(F)F)cc3)cc2)C(=O)c2ccccc21
MIC90 [1]: 2.65 µM (≈ 1.08 µg/mL)
MIC99 [1]: 4.3 µM (≈ 1.75 µg/mL)

Oc1ccc(-c2nnc(S)[nH]2)cc1O
MIC [1]: 10.5 µg/mL (≈ 50.2 µM)

COc1ccc(-c2nc3cc(C4=NN(C(C)=O)C(c5cccs5)C4)ccc3o2)cc1 (centres undefined)
MIC [1]: 12.5 µg/mL (≈ 29.9 µM)

COC(=O)c1c(NC(=O)c2c(F)c(F)c(F)c(F)c2F)sc2c1CCCCC2
MIC [1]: 1 µg/mL (≈ 2.38 µM)

Nc1ccsc1-c1nnc(S)o1
MIC [1]: 21.3 µg/mL (≈ 107 µM)

CCOC(=O)c1c(NC(=O)c2c(F)c(F)c(F)c(F)c2F)sc(C(N)=O)c1C
MIC [1]: 0.5 µg/mL (≈ 1.18 µM)

CC(=O)N1/C(=C/c2cccc(-c3ccc(F)cc3)c2)C(=O)c2ccccc21
MIC90 [1]: 5.1 µM (≈ 1.82 µg/mL)
MIC99 [1]: 5.66 µM (≈ 2.02 µg/mL)

Sc1nnc(-c2ccc(-c3ccccc3)cc2)o1
MIC [1]: > 25 µg/mL

COC(=O)c1c(NC(=O)c2c(F)c(F)c(F)c(F)c2F)sc(-c2ccc(Cl)cc2)c1C(=O)OC
MIC [1]: 3.5 µg/mL (≈ 6.73 µM)

NC(=O)N1N=C(c2ccc3oc(S)nc3c2)CC1c1cccs1 (centres undefined)
MIC [1]: 12.5 µg/mL (≈ 36.3 µM)

O=[N+]([O-])c1ccc([N+](=O)[O-])c(-c2nnc(S)o2)c1
MIC [1]: 6.7 µg/mL (≈ 25 µM)

CC(=O)N1N=C(c2ccc3oc(-c4ccccc4)nc3c2)CC1c1cccs1 (centres undefined)
MIC [1]: 25 µg/mL (≈ 64.5 µM)

O=[N+]([O-])c1ccc(-c2nnc(S)o2)cc1
MIC [1]: 3.1 µg/mL (≈ 13.9 µM)

COC(=O)c1c(NC(=O)c2ccc(C)cc2)sc2c1CCCCC2
MIC [1]: > 20.2 µg/mL

Oc1cc(O)cc(-c2nnc(S)o2)c1
MIC [1]: 21 µg/mL (≈ 99.9 µM)

NOC(=O)c1c(NC(=O)c2c(F)c(F)c(F)c(F)c2F)sc2c1CCC2
MIC [1]: 10.6 µg/mL (≈ 27 µM)

CC(=O)N1N=C(c2ccc3oc(NC(=O)C(C)C)nc3c2)CC1c1cccs1 (centres undefined)
MIC [1]: 25 µg/mL (≈ 63.1 µM)
